Assay results from patent US11427548B2 (Arvinas Operations, Inc., priority 2015, dated 2022).
Where two headings read alike, the source gives them in different places. Values belong to the compound of their own block, whether it stands above or below them.

Target: T1, Androgen Receptor (Homo sapiens, UniProt P10275)
T1 construct: endogenous in cells; host or cells: VCaP cells
T1 sequence (P10275 1-920): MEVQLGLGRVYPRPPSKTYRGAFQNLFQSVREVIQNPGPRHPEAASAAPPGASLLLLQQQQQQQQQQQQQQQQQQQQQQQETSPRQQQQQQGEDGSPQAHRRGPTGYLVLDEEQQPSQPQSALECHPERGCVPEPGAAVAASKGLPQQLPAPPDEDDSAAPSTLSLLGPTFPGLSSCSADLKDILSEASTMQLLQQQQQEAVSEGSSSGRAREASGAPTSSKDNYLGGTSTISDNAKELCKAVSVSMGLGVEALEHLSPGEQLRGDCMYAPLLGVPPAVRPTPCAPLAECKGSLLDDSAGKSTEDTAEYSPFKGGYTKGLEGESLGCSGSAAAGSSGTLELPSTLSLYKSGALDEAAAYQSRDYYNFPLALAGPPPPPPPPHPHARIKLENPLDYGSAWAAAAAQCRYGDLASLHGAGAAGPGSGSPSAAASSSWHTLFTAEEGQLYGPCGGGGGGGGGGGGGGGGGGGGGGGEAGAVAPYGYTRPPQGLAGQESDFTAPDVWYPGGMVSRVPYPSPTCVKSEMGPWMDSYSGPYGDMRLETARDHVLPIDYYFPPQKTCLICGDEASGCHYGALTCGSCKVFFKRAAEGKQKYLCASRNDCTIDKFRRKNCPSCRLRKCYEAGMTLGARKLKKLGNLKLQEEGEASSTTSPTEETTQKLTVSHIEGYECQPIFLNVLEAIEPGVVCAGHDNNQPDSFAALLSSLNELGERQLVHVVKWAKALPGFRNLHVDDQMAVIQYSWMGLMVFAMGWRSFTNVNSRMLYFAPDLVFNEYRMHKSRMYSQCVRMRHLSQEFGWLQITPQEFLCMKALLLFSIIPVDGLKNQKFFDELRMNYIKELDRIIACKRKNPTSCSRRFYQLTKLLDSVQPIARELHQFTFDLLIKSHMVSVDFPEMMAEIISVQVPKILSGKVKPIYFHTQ
Experiment: Androgen Receptor ELISA assay (PathScan AR ELISA) in VCaP cells: AR degradation, Dmax and DC50
Assay type: cell-based
Procedure, shortened: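 VCaP cells in phenol red-free RPMI with 5% charcoal-stripped FBS were grown at least 3 days, then given compound as 7 half-log doses in 0.1% DMSO with 0.1 nM R1881 for 24 h. Lysates went into a sandwich AR ELISA with TMB read at 450 nm.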

[1] = VCaP cells; Table 35; read-out: VCaP DC50
[2] = VCaP, VCaP cells; Table 35; read-out: VCaP Dmax (%)
[3] = VCaP cells; Table 36; read-out: VCaP DC50
[4] = VCaP, VCaP cells; Table 36; read-out: VCaP Dmax (%)
[5] = read-out: VCaP DC50; VCaP cells; Table 34
[6] = VCaP, read-out: VCaP Dmax (%), VCaP cells; Table 36

DC50 [1]: < 50 nM | Dmax [2]: > 71%
Compound: CC(C)(C)[C@H](NC(=O)COCCCCCNc1ccc(C(=O)N[C@H]2C(C)(C)[C@H](Oc3ccc(C#N)c(Cl)c3)C2(C)C)cc1)C(=O)N1C[C@H](O)C[C@H]1C(=O)NCc1ccc(-n2cncn2)cc1 [Example 530]

DC50 [1]: > 501 nM | Dmax [2]: < 25%
Compound: Cc1ncsc1-c1ccc(CNC(=O)[C@@H]2C[C@H](O)CN2C(=O)[C@@H](NC(=O)COCCOc2ccc(-c3ccc(C(=O)N[C@H]4C(C)(C)[C@H](Oc5ccc(C#N)c(Cl)c5)C4(C)C)cc3)cc2)C(C)(C)C)cc1 [Example 481]

Compound: Cc1ncsc1-c1ccc([C@H](C)NC(=O)[C@@H]2C[C@@H](O)CN2C(=O)[C@@H](NC(=O)CN2CCC(O[C@H]3C[C@H](Nc4ccc(C(=O)N[C@H]5C(C)(C)[C@H](Oc6ccc(C#N)c(Cl)c6)C5(C)C)cn4)C3)CC2)C(C)(C)C)cc1 [Example 690, N-((1r,3R)-3-(3-chloro-4-cyanophenoxy)-2,2,4,4-tetramethylcyclobutyl)-6-(((1S,3R)-3-((1-(2-(((S)-1-((2S,4R)-4-hydroxy-2-(((S)-1-(4-(4-methylthiazol-5-yl)phenyl)ethyl)carbam-oyl)pyrrolidin-1-yl)-3,3-dimethyl-1-oxobutan-2-yl)amino)-2-oxoethyl)piperidin-4-yl)oxy)cyclobutyl)amino) nicotinamide]
DC50 [3]: < 50 nM | Dmax (VCaP, read-out: VCaP Dmax (%)): > 71%

Compound: Cc1ncsc1-c1ccc(CNC(=O)[C@@H]2C[C@@H](O)CN2C(=O)[C@@H](NC(=O)COCCCCOc2ccc(-c3ccc(N4C(=S)N(c5cnc(C#N)c(C(F)(F)F)c5)C(=O)C4(C)C)cc3)cc2)C(C)(C)C)cc1 [Example 193, (2S,4R)-1-[(2S)-2-(2-{4-[4-(4-{3-[6-cyano-5-(trifluoromethyl)pyridin-3-yl]-5,5-dimethyl-4-oxo-2-sulfanylideneimidazolidin-1-yl}phenyl)phenoxy]butoxy}acetamido)-3,3-dimethylbutanoyl]-4-hydroxy-N-{[4-(4-methyl-1,3-thiazol-5-yl)phenyl]methyl}pyrrolidine-2-carboxamide]
DC50 (VCaP cells; concentration that caused 50% Androgen Receptor degradation; read-out: VCaP DC50): < 50 nM | Dmax (VCaP, VCaP cells; highest percentage of Androgen Receptor degradation; read-out: VCaP Dmax (%)): > 71%

DC50 [3]: < 50 nM | Dmax [4]: 51 to 70%
Compound: Cc1ncsc1-c1ccc([C@H](C)NC(=O)[C@@H]2C[C@@H](O)CN2C(=O)[C@@H](NC(=O)CN2CC(N3CCN(c4ccc(C(=O)N[C@H]5C(C)(C)[C@H](Oc6ccc(C#N)c(Cl)c6)C5(C)C)cn4)CC3)C2)C(C)(C)C)cc1 [Example 794, N-((1r,3r)-3-(3-chloro-4-cyanophenoxy)-2,2,4,4-tetramethylcyclobutyl)-6-(4-(1-(2-(((S)-1-((2S,4R)-4-hydroxy-2-(((S)-1-(4-(4-methylthiazol-5-yl)phenyl)ethyl)carbamoyl)pyrrolidin-1-yl)-3,3-dimethyl-1-oxobutan-2-yl)amino)-2-oxoethyl)azetidin-3-yl)piperazin-1-yl)nicotinamide]

Compound: Cc1ncsc1-c1ccc(CNC(=O)[C@@H]2C[C@@H](O)CN2C(=O)[C@@H](NC(=O)COCCCCNc2ccc(C(=O)N[C@H]3C(C)(C)[C@H](Oc4ccc(C#N)c(Cl)c4)C3(C)C)cc2)C(C)(C)C)cc1 [Example 175, (2S,4R)-1-[(2S)-3,3-dimethyl-2-(2-{4-[(4-{[trans-3-(3-chloro-4-cyanophenoxy)-2,2,4,4-tetramethylcyclobutyl]carbamoyl}phenyl)amino]butoxy}acetamido)butanoyl]-4-hydroxy-N-{[4-(4-methyl-1,3-thiazol-5-yl)phenyl]methyl}pyrrolidine-2-carboxamide]
Dmax (VCaP, highest percentage of Androgen Receptor degradation observed, VCaP cells (Table 32); read-out: VCaP Dmax (%)): 51 to 70% | DC50 (concentration that caused 50% Androgen Receptor degradation, VCaP cells (Table 32); read-out: VCaP DC50): < 50 nM

DC50 [3]: < 50 nM | Dmax [4]: 51 to 70%
Compound: Cc1ncsc1-c1ccc(CNC(=O)[C@@H]2C[C@@H](O)CN2C(=O)[C@@H](NC(=O)CN2CCC3(CC2)CCN(c2ccc(C(=O)N[C@H]4C(C)(C)[C@H](Oc5ccc(C#N)c(Cl)c5)C4(C)C)cn2)CC3)C(C)(C)C)cc1 [Example 672, N-((1r,3r)-3-(3-chloro-4-cyanophenoxy)-2,2,4,4-tetramethylcyclobutyl)-6-(9-(2-(((S)-1-((2S,4R)-4-hydroxy-2-((4-(4-methylthiazol-5-yl)benzyl)carbamoyl)pyr-rolidin-1-yl)-3,3-dimethyl-1-oxobutan-2-yl)amino)-2-oxoethyl)-3,9-diazaspiro[5.5]undecan-3-yl)nicotinamide]

Compound: CC(C)(C)[C@H](NC(=O)COCCCOCCCCOc1ccc(N2C(=S)N(c3ccc(C#N)c(C(F)(F)F)c3)C(=O)C2(C)C)cc1)C(=O)N1C[C@H](O)C[C@H]1C(=O)NCc1ccc(-c2cnco2)c(F)c1 [Example 367]
Dmax (VCaP, read-out: VCaP Dmax (%)): 51 to 70% | DC50 [5]: < 50 nM

Compound: CC(C)(C)[C@H](NC(=O)COCCCOCCCCCOc1ccc(N2C(=S)N(c3ccc(C#N)c(C(F)(F)F)c3)C(=O)C2(C)C)cc1)C(=O)N1C[C@H](O)C[C@H]1C(=O)NCc1ccc(Cl)cc1 [Example 14, (2S,4R)-N-[(4-chlorophenyl)methyl]-1-[(2S)-2-[2-(3-{[5-(4-{3-[4-cyano-3-(trifluoromethyl)phenyl]-5,5-dimethyl-4-oxo-2-sulfanylideneimidazolidin-1-yl}phenoxy)pentyl]oxy}propoxy)acetamido]-3,3-dimethylbutanoyl]-4-hydroxypyrrolidine-2-carboxamide]
DC50 (read-out: VCaP DC50; concentration that caused 50% Androgen Receptor degradation, VCaP cells): > 501 nM

Compound: Cc1ncsc1-c1ccc([C@H](C)NC(=O)[C@@H]2C[C@@H](O)CN2C(=O)[C@H](C(C)C)n2cc(Oc3cccc(OCCCCCOc4ccc(N5C(=S)N(c6ccc(C#N)c(C(F)(F)F)c6)C(=O)C5(C)C)cc4)c3)cn2)nc1 [Example 426]
Dmax (VCaP, read-out: VCaP Dmax (%)): < 25% | DC50 (read-out: VCaP DC50; VCaP cells; Table 35): > 501 nM

Compound: CC(C)(C)[C@H](NC(=O)COCCCOCCCCOc1ccc(N2C(=S)N(c3ccc(C#N)c(Cl)c3)C(=O)C2(C)C)c(F)c1)C(=O)N1C[C@H](O)C[C@H]1C(=O)NCc1ccc(-c2cnco2)cc1 [Example 336]
Dmax (VCaP, read-out: VCaP Dmax (%)): > 71% | DC50 [5]: < 50 nM

Compound: Cc1ncsc1-c1ccc(CNC(=O)[C@@H]2C[C@@H](O)CN2C(=O)[C@H](C)NC(=O)COCCCOCCCCOc2ccc(N3C(=S)N(c4ccc(C#N)c(C(F)(F)F)c4)C(=O)C3(C)C)cc2)cc1 [Example 366]
DC50 [5]: < 50 nM

DC50 (VCaP cells; Table 34; read-out: VCaP DC50): < 50 nM | Dmax (VCaP, VCaP cells; Table 34; read-out: VCaP Dmax (%)): > 71%
Compound: Cc1ncsc1-c1ccc(CNC(=O)[C@@H]2C[C@@H](O)CN2C(=O)[C@@H](NC(=O)CO[C@H](C)c2ccc(Oc3ccc(C(=O)N[C@H]4C(C)(C)[C@H](Oc5ccc(C#N)c(Cl)c5)C4(C)C)cc3)cc2)C(C)(C)C)cc1 [Example 405]

DC50 [1]: > 501 nM | Dmax [2]: 26 to 50%
Compound: CNC[C@@H](NC(=O)[C@@H]1C[C@@H](O)CN1C(=O)[C@@H](NC(=O)COCCCCCOc1ccc(C(=O)N[C@H]2C(C)(C)[C@H](Oc3ccc(C#N)c(Cl)c3)C2(C)C)cc1)C(C)(C)C)c1ccc(-c2scnc2C)cc1 [Example 514]

Compound: Cc1ncsc1-c1ccc([C@H](C)NC(=O)[C@@H]2C[C@@H](O)CN2C(=O)[C@@H](NC(=O)COCCCCOc2ccc(-c3ccc(C(=O)N[C@H]4C(C)(C)[C@H](Oc5ccc(C#N)c(Cl)c5)C4(C)C)cc3)cc2)C(C)(C)C)cc1 [Example 630, (2S,4R)-1-((S)-2-(2-(4-((4′-(((1r,3r)-3-(3-chloro-4-cyanophenoxy)-2,2,4,4-tetramethylcyclobutyl)carbamoyl)-[1,1′-biphenyl]-4-yl)oxy)butoxy)acetamido)-3,3-dimethylbutanoyl)-4-hydroxy-N-((S)-1-(4-(4-methylthiazol-5-yl)phenyl)ethyl)pyrrolidine-2-carboxamide]
DC50 [3]: < 50 nM | Dmax [6]: > 71%

DC50 [3]: > 501 nM | Dmax [6]: < 25%
Compound: Cc1ncsc1-c1ccc([C@H](C)NC(=O)[C@@H]2C[C@@H](O)CN2C(=O)[C@@H](NC(=O)CN2CCN(CCCc3ccc(C(=O)N[C@H]4C(C)(C)[C@H](Oc5ccc(C#N)c(C#N)c5)C4(C)C)cc3)CC2)C2COC2)cc1 [Example 746, (2S,4R)-1-((S)-2-(2-(4-(3-(4-(((1r,3r)-3-(3,4-dicyanophenoxy)-2,2,4,4-tetramethylcyclobutyl)carbamoyl)phenyl)propyl)piperazin-1-yl)acetamido)-2-(oxetan-3-yl)acetyl)-4-hydroxy-N-((S)-1-(4-(4-methylthiazol-5-yl)phenyl)ethyl)pyrrolidine-2-carboxamide]
